From PMC10610505, “Synthesis and Biological Evaluation of Some New 3-Aryl-2-thioxo-2,3-dihydroquinazolin-4(1H)-ones and 3-Aryl-2-(benzylthio)quinazolin-4(3H)-ones as Antioxidants; COX-2, LDHA, α-Glucosidase and α-Amylase Inhibitors; and Anti-Colon Carcinoma and Apoptosis-Inducing Agents” (Pharmaceuticals, 2023)
Where two headings read alike, the source gives them in different places.

How the values were obtained:
[1] = DPPH radical scavenging assay; type: biochemical; details: for Mean IC50 for scavenging initial DPPH radicals: mean ± SD of three replicates; for IC50: mean ± SD, converted from mg/mL, read-out: Mean IC50 for scavenging initial DPPH radicals (converted)
Text: In principle, the antioxidant power of a compound in this assay is correlated to its tendency to reduce the stable, purple-colored DPPH radical through a hydrogen atom transfer (HAT) mechanism and/or a single electron transfer mechanism, thereby converting it to the yellow-colored 2,2-diphenyl-1-picrylhydrazine, whereby this reduction is accompanied by a depletion in the amount of the initial DPPH radicals and a change in the absorbance of the test solution accordingly, which can be detected relative to the blank solution at λ = 517 nm.
The antioxidant potencies of all synthesized compounds were investigated using a 1,1 diphenyl-2-picrylhydrazyl (DPPH) radical scavenging assay according to the protocol described by Bersuder et al.. In brief, a 0.5 mL volume of DPPH ethanolic solution was mixed with an equal volume of each sample concentration (i.e., the test compound or butylated hydroxytoluene, BHT, which was used as the reference antioxidant in the positive control experiment), shaken strongly, and incubated at room temperature for 1 h in darkness. The absorbance of the residual DPPH radicals was measured at λ = 519 nm and compared to the negative control (without the test compound or reference antioxidant). The DPPH radical scavenging power was calculated using the following formula: scavenging efficiency (%) = (1 − Acompound/AControl) × 100, where Acompound and Acontrol are the absorbance of the tested compound and the negative control, respectively. […] Additionally, the ± SD values were calculated from three independent triplicate measurements.

COX-2 = target: T1, COX-2 (Homo sapiens, UniProt P35354); assay: COX-2 inhibitory screening assay (Cayman kit); type: biochemical; details: for Increase in COX-2 inhibitory efficiency by duplicating the concentration: % inhibition at 0.200 mg/mL divided by % inhibition at 0.100 mg/mL; for inhibition at 100 µg/mL: at 0.100 mg/mL; for inhibition at 100 µg/mL / inhibition at 200 µg/mL: read-out: COX-2 mean % inhibition ± SD; for inhibition at 200 µg/mL: at 0.200 mg/mL
T1 construct: purchased Cayman Chemical Company 701080
T1 sequence (P35354 18-604): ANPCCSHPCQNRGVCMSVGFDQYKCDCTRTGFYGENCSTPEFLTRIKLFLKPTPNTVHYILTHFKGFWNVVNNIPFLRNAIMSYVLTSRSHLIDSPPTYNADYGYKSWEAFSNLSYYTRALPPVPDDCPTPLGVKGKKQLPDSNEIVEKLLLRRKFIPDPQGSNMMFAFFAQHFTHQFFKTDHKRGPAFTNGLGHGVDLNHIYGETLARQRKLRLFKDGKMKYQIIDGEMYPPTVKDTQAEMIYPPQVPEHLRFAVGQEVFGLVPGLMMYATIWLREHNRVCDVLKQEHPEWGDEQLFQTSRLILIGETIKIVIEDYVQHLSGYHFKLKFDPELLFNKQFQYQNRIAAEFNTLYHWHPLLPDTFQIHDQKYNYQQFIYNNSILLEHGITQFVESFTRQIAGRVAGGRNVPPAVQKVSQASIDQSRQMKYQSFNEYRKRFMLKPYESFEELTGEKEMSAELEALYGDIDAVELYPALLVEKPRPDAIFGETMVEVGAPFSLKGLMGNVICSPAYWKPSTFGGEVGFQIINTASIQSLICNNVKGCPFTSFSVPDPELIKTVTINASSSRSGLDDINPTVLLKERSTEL
Description: Each compound of the two series, 3a–h and 5a–h, was resuspended in 100% DMSO at a final concentration of 10 mg/mL. […] Briefly, 10 µL of the tested compound was added to a mixture of the reaction buffer solution (160 µL of 0.1 M Tris-HCl, pH 8.0, in the presence of 2 mM phenol and 5 mM EDTA), COX-2 (10 µL) and heme (10 µL). After a 10 min incubation at 37 °C, the reaction was started by adding arachidonic acid (10 µL), rapidly mixed and kept at 37 °C for 2 min. PGF2α generated via PGH2 reduction with stannous chloride (30 µL) was incubated at room temperature for 5 min. The PGF2α amount was then determined via an enzyme immunoassay. Prior to incubation with the COX-2 reaction (at room temperature 18 h), the 96-well plate was previously coated with a mouse anti-rabbit monoclonal antibody. Unbound reagents were removed by washing the plate followed by adding Ellman’s reagent to the well. The reaction product displaying a distinct yellow color was measured at 410 nm using a UV microplate reader. The % inhibition was calculated by comparing the PGF2α produced in the compound-treated samples with a control sample, using the following equation: % inhibition is equal to [([PGF2α]control − [PGF2α]sample) /[PGF2α ]control ] × 100. […] The COX-2 inhibitory efficiency was expressed as an inhibition percentage, which was determined via a comparison with the negative control experiments.

[2] = target: purified recombinant human LDHA protein (Homo sapiens, UniProt P00338); assay: Lactate dehydrogenase A (LDHA) inhibitory assay; type: biochemical; details: for Fold change of LDHA inhibition as compared to 0.1 mg/mL: % inhibition at 0.200 mg/mL divided by % inhibition at 0.100 mg/mL; for inhibition at 100 µg/mL: at 0.1 mg/mL; for inhibition at 100 µg/mL / inhibition at 200 µg/mL: read-out: LDHA mean % inhibition ± SD; for inhibition at 200 µg/mL: at 0.2 mg/mL
Description: The LDHA inhibitory effectiveness was investigated by measuring the amounts of consumed NADH [73]. […] The fluorescence of NADH, which has an excitation wavelength of 340 nm and an emission wavelength of 460 nm, was detected using a spectrofluorometer. […] The LDHA inhibitory efficiency was expressed as an inhibition percentage, which was determined via a comparison with the negative control experiments.

[3] = system: LoVo human colon carcinoma cells; assay: Viability assay (LDH release), LoVo; type: cell-based; details: Homo sapiens, LoVo, 48 h, read-out: Mean % of viable cells ± SD, LoVo
Description: (§1) The anticancer activities of all the synthesized compounds were assessed against two human colon carcinoma cell lines, namely LoVo and HCT-116 (Table 6), via the determination of the mean percents of the viable cancerous cells remaining after being incubated with 200 µg/mL of each test compound for 48 h using LDH assay.
(§2) The samples were diluted in Dulbecco’s Modified Eagle’s Medium, consisting of 10% fetal bovine serum (FBS), added to cells grown and cultured for 24 h in a 5% CO2-humidified incubator at 37 °C. Thereafter, the activity of lactate dehydrogenase released from damaged cells was determined in the collected supernatant aliquots using an ELISA end-point assay (Benchmark Plus, Bio-Rad, CA, USA); 0.1% Triton X-100 in the assay medium and the assay medium only were used as the positive and negative controls, respectively. Cell viability was expressed as a relative percentage of the OD values (at 550 nm) for compound-treated cells (final concentration of 200 µg /mL) and the negative control, which was shown as the mean % ± SD (n = 3). The results of the viability assays for the potential cytotoxic candidates were compared with the % of viable human umbilical vein endothelial cells (HUVEC) at the same concentration. These cells were grown in Dulbecco’s Modified Eagle’s Medium (PAN-Biotech; Barcelona, Spain) containing 10% FBS (Sigma Aldrich; St. Quentin-Fallavier, France), 2 mM Glutamine (Sigma Aldrich), 100 units/mL penicillin and […] streptomycin (Life Technologies; Paisley, UK).

[4] = system: HCT-116 human colon carcinoma cells; assay: Viability assay (LDH release), HCT-116; type: cell-based; details: Homo sapiens, read-out: Mean % of viable cells ± SD, HCT-116
Description: as §1, §2

α-amylase = assay: In vitro α-amylase (AA) inhibition assay; details: mean ± SD of three replicates; for IC50: read-out: Mean IC50 α-Amylase (AA)
Description: Then, 180 µL of Labtest (the amylase substrate) was added and the samples were incubated for 8 min, followed by measuring the first reaction at 620 nm to obtain (X1). Afterwards, the reaction mixture was incubated for an additional 5 min at 37 °C; then, the second reaction was measured to obtain the final reading (X2). […] The results were expressed as IC50 µg/mL (as well as µM) and were determined from the standard curves.

| SMILES | Mean IC50 for scavenging initial DPPH radicals [1] [µg/mL] | IC50 [1] [µM] | Increase in COX-2 inhibitory efficiency by duplicating the concentration (COX-2) [fold] | inhibition at 100 µg/mL (COX-2) [%] | inhibition at 200 µg/mL (COX-2) [%] | Fold change of LDHA inhibition as compared to 0.1 mg/mL [2] [fold] | inhibition at 100 µg/mL [2] [%] | inhibition at 200 µg/mL [2] [%] | viability at 200 µg/mL ([3]; 200 µg/mL) [%] | viability at 200 µg/mL ([4]; HCT-116, 200 µg/mL, 48 h) [%] | Mean IC50 α-Amylase (AA) (α-amylase) [µg/mL] | IC50 (α-amylase) [µM] | viability at 200 µg/mL [3] [%] | viability at 200 µg/mL ([4]; HCT-116, 48 h) [%] |
| --- | --- | --- | --- | --- | --- | --- | --- | --- | --- | --- | --- | --- | --- | --- |
| Cc1cc(C(C)(C)C)c(O)c(C(C)(C)C)c1 [BHT, butylated hydroxy toluene, reference compound] | 54 ± 6 | 245 |  |  |  |  |  |  |  |  |  |  |  |  |
| COc1cc2nc(SCc3ccc(Cl)cc3)n(-c3ccc([N+](=O)[O-])cc3)c(=O)c2cc1OC [Compound 5h, 2-(4-Chloro-benzylsulfanyl)-6,7-dimethoxy-3-(4-nitro-phenyl)-3H-quinazolin-4-one] | 364 ± 20 | 752 | 2.58 | 11.2 ± 0.99 | 28.9 ± 0.283 | 1.42 | 15.3 ± 1.2 | 21.8 ± 1.34 | 81.7 ± 3.06 | 91 ± 2.65 | 117.667 ± 3.055 | 243 |  |  |
| COc1cc2[nH]c(=S)n(-c3ccc([N+](=O)[O-])cc3)c(=O)c2cc1OC [Compound 3h, 6,7-Dimethoxy-3-(4-nitro-phenyl)-2-thioxo-2,3-dihydro-1H-quinazolin-4-one] | 325 ± 7 | 904 | 1.900 | 14.6 ± 0.636 | 27.6 ± 2.19 | 1.47 | 29.9 ± 1.77 | 43.9 ± 1.56 |  |  | 122.000 ± 4.583 | 339 | 64 ± 3 | 70.3 ± 3.79 |
| COc1ccc(Br)c(CSc2nc3ccc(Br)cc3c(=O)n2-c2ccc(C(F)(F)F)cc2)c1 [Compound 5e, 2-(2-Bromo-5-methoxybenzylsulfanyl)-6-bromo-3-(4-trifluoromethyl-phenyl)-3H-quinazolin-4-one] | 225 ± 21 | 375 | 1.67 | 31 ± 2.83 | 51.6 ± 4.88 | 1.29 | 15.2 ± 1.77 | 19.6 ± 2.33 | 64.3 ± 2.08 | 79.7 ± 2.52 | 150.333 ± 3.512 | 250 |  |  |
